Key:
[1] = tested on: db/db mice; experiment: Anti-diabetic effects for db/db mice (glycosylated hemoglobin); assay type: in vivo, C57BLKS/J-db/db mice
Protocol: 5-week-old male C57BLKS/J-db/db mice (Central Lab. Animal Inc.) were purchased and acclimatized for 2 weeks, and then used in this experiment. Samples were exactly taken from the compounds prepared in Examples 4 and 15 of the present invention (Compounds 5 and 16) according to the administration dose and put into Falcon tubes, a 0.5% methyl cellulose aqueous solution stored refrigerated was placed at room temperature to allow the excipients to be warmed at room temperature, 16 ml of each of the excipients was added to a 50 ml Falcon tube, and a vortex mixer was used to primarily mix the ingredients in a soft manner, and then a suspension was obtained and homogenized by treating the sample for 3 minutes using a homogenizer (30,000 rpm, CPT-1600E, Kinemtica, Switzerland), and then ultrasonically treated for 30 minutes. The sample thus prepared was administered through oral gavage using a disposable plastic syringe equipped with a sonde once daily for 42 days (6 weeks).
The glycosylated hemoglobin (HbA1c) was measured while the db/db mice were bred. The gyclosylated hemoglobin was measured at 2 days prior to group separation, 4 weeks after administration, and 6 weeks after administration, and was measured by fasting the mice for 4 hours on the measurement date, collecting blood from the caudal vein before each material was administered, and using a device for measuring glycosylated hemoglobin (SD A1cCare, SD Biosensor, Inc., Korea).

[2] = tested on: BV2 microglia cells; experiment: BV2 cell NO assay (LPS-induced NO production, Griess reagent); assay type: cell-based; conditions: Mus musculus, BV-2, LPS 1 μg/ml, 24 hours
How it was run: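 BV2 cells; NO suppression tested only at concentrations showing no cytotoxicity in an MTT assay (0.5 mg/ml MTT, absorbance 540 nm). NO read by absorbance at 540 nm; suppression rate taken as the difference in NO produced between control and treated groups; mean of three repeats.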

[3] = tested on: C2C12 cells; experiment: Glucose uptake (2-NBDG) in C2C12 cells; assay type: cell-based; conditions: compared with Rosiglytazone and Metformin
Protocol: In terms of capacity of glucose uptake in C2C12 cells, the compound (Compound 15) of Example 14 of the present invention was compared with the existing Rosiglytazone and Metformin which were used or are currently used as a therapeutic agent for diabetes. The C2C12 cell was cultured in a Dulbecco's modified eagle medium (DMEM) supplemented with 10% fetal bovine serum (FBS), penicillin (120 unit/mL), and streptomycin (75 μg/mL), the medium used for differentiation was a DMEM medium supplemented with 1% horse serum, and the C2C12 cell was cultured in the DMEM medium for 4 days. The cell thus cultured was treated with Compound 15 in a low-glucose, serum-free medium supplemented with 2-[N-(7-nitrobenz-2-oxa-1,3-diazol-4-yl)amino]-2-deoxy-d-glucose (2-NBDG) for 24 hours to measure the glucose absorbance at an excitation wavelength of 485 nm and an emission wavelength of 535 nm using a fluorescent detector. The same experiment was performed on Rosiglytazone and Metformin.

| IC50 [2] [µM] | SMILES | HbA1c (%) 4 weeks ([1]; 4 weeks after administration, 300 mg/kg oral once daily) [%] | HbA1c (%) 6 weeks ([1]; 6 weeks after administration, 300 mg/kg oral once daily) [%] | HbA1c (%) Before administration ([1]; before administration, 300 mg/kg group) [%] | capacity of promoting glucose uptake, in words [3] |
| --- | --- | --- | --- | --- | --- |
| 3.8 | CCCc1ccc(C2COc3c(ccc4c3CCC(C)(C)O4)C2)c(O)c1 (stereo not drawn) [Compound 5, 3-(2-hydroxy-4-propylphenyl)-8,8-dimethyl-2,3,4,8,9,10-hexahydropyrano [2,3-f] chromene] | 5.3 | 5.7 | 4.7 |  |
| 2.7 | CCOc1ccc(C2COc3c(ccc4c3CCC(C)(C)O4)C2)c(O)c1 (stereo not drawn) [Compound 15, 3-(2-hydroxy-4-ethoxyphenyl)-8,8-dimethyl-2,3,4,8,9,10-hexahydropyrano [2,3-f] chromene] |  |  |  | better than that of the existing therapeutic agent for diabetes |

Reference: patent publication US9783551B2, “Pyranochromenyl phenol derivative, and pharmaceutical composition for treating metabolic syndrome or inflammatory disease” (GLACEUM, INC., priority 2013, dated 2017)
